Here are results for twelve compounds from patent publication US6645774B1 (Synaptic Pharmaceutical Corporation, priority 1994, dated 2003).

Like-named read-outs stand apart in the source and are kept apart here.

For experiment [1], the target named is T1, human Y2 receptor (Homo sapiens, UniProt P49146).
T1 sequence (P49146 1-381): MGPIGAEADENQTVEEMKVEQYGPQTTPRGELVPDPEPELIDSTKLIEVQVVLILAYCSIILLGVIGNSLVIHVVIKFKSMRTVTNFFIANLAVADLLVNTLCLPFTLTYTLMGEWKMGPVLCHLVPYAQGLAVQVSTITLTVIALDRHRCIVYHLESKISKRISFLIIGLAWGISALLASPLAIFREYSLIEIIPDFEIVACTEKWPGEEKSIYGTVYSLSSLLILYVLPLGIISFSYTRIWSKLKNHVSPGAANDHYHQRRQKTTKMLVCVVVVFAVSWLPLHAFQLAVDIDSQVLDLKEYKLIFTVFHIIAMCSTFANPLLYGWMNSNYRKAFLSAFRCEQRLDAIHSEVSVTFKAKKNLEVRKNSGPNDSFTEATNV
Kind of experiment: ^125I-PYY binding of compounds to human Y2 receptor, stably transfected cells.
Experimental: (§1) To prepare membranes from baculovirus infected cells, 2×10^7 Sf21 cells were grown in 150 mm tissue culture dishes and infected with a high-titer stock of hY5BB3.

A further experiment has as its target human 5HT1E receptor (Homo sapiens, UniProt P28566). As to the kind of experiment: Cross-reactivity binding, human 5HT1E receptor. The conditions noted are these: for Receptor (pKi) 5HT1E: cloned human receptor.
Another experiment deals with human 5HT1Dα receptor (Homo sapiens, UniProt P28221). Kind of experiment: Cross-reactivity binding, human 5HT1Dα receptor. The conditions noted are these: cloned human receptor.
Chain of human 5HT1Dα receptor (P28221 whole entry): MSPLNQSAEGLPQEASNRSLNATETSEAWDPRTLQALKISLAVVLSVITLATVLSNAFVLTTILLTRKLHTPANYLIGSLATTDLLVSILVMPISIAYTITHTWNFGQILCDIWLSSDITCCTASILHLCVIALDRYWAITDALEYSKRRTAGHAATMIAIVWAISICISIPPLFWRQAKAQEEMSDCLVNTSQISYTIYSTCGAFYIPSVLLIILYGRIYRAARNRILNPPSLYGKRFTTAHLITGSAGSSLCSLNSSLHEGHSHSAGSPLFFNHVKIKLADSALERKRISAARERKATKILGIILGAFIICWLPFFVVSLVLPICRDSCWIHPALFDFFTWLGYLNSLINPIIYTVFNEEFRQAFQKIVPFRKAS
A further experiment concerns the target T2, human 5HT1F receptor (Homo sapiens, UniProt P30939).
T2 sequence (P30939 1-366): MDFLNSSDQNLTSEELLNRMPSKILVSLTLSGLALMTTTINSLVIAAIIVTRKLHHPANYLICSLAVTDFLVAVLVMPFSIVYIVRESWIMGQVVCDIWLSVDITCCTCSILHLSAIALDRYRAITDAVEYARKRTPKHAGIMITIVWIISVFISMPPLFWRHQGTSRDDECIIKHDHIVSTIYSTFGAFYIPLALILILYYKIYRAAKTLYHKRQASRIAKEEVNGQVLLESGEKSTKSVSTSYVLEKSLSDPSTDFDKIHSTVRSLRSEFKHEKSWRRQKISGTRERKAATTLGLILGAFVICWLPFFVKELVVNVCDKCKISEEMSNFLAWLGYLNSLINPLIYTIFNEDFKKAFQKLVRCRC
Kind of experiment: Cross-reactivity binding, human 5HT1F receptor. The conditions noted are these: for Receptor (pKi) 5HT1F: cloned human receptor.

A further experiment concerns the target 5HT1D2 (Homo sapiens, UniProt P28222). As to the kind of experiment: Cross-reactivity binding, human 5HT1D2 receptor. As to conditions: cloned human receptor.
In experiment [2] the target is T3, rat Y2 receptor (Rattus norvegicus, UniProt Q9ERC0). Kind of experiment: Antagonism of NPY- or PP-induced activation of rat Y2 receptors. The conditions noted are these: rat Y2, concentrations up to 1 μM. It counts as cell-based. Also noted: expressed in transfected cells.
T3 sequence (Q9ERC0 1-381): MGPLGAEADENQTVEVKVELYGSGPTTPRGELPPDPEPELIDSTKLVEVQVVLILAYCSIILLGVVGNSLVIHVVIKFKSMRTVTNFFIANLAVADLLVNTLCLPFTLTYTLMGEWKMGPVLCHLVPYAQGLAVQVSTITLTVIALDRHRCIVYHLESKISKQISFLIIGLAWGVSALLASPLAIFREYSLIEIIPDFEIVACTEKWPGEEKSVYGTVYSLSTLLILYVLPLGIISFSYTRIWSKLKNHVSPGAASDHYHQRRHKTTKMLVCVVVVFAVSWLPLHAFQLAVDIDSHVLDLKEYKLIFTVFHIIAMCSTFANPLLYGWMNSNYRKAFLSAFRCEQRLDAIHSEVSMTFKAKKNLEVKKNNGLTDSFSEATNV
Experiment [3] addresses T3, rat Y2 receptor. As to the kind of experiment: ^125I-PYY binding to cloned rat Y2 receptor (COS-7 membranes). The conditions noted are these: cloned rat Y-type receptors; expression system not given.
The target in experiment [4] is T4, human Y4 receptor (Homo sapiens, UniProt P50391). As to the kind of experiment: ^125I-PYY binding to cloned human Y4 receptor (COS-7 membranes). As to conditions: cloned human Y-type receptors; expression system not given.
T4 sequence (P50391 whole entry): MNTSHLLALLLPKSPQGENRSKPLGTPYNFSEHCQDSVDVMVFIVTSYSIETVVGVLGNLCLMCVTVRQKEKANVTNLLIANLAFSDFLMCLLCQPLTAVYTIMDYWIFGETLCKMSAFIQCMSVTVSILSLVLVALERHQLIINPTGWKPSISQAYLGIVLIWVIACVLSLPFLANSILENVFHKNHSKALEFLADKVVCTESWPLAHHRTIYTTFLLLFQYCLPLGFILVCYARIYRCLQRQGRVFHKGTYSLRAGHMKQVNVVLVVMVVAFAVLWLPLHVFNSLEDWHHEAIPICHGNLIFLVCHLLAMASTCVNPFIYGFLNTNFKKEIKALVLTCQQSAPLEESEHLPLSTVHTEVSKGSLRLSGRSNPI
For experiment [5], the target named is T1, human Y2 receptor. As to the kind of experiment: ^125I-PYY binding to cloned human Y2 receptor (COS-7 membranes). As to conditions: cloned human Y-type receptors; expression system not given.
The target of a further experiment is rat Y4 receptor (Rattus norvegicus, UniProt Q63447). Kind of experiment: ^125I-PYY binding to cloned rat Y4 receptor (COS-7 membranes). The conditions noted are these: cloned rat Y-type receptors; expression system not given.
Chain of rat Y4 receptor (Q63447 whole entry): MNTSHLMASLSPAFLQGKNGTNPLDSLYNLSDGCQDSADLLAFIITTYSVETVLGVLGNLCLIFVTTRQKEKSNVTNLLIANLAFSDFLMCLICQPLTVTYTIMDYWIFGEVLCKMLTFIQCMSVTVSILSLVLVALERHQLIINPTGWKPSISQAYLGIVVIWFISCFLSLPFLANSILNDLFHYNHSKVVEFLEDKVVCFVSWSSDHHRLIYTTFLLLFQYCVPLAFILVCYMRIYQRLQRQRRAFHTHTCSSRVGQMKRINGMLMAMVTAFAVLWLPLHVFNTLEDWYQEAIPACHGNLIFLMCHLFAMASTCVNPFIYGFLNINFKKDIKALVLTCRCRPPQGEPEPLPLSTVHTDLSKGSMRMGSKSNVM
A further experiment addresses canine Y5 receptor. As to the kind of experiment: Porcine ^125I-PYY binding to canine Y5 receptor (COS-7 membranes). The conditions noted are these: COS-7 transient, Table 20 prints no unit, nM.
Experiment [6] has as its target human α2C adrenergic receptor (Homo sapiens, UniProt P18825). Kind of experiment: Cross-reactivity binding, cloned human α2c receptor.
Another experiment deals with 5HT1a (Homo sapiens, UniProt P08908). As to the kind of experiment: Cross-reactivity binding, human 5HT1a receptor.
Chain of 5HT1a (P08908 whole entry): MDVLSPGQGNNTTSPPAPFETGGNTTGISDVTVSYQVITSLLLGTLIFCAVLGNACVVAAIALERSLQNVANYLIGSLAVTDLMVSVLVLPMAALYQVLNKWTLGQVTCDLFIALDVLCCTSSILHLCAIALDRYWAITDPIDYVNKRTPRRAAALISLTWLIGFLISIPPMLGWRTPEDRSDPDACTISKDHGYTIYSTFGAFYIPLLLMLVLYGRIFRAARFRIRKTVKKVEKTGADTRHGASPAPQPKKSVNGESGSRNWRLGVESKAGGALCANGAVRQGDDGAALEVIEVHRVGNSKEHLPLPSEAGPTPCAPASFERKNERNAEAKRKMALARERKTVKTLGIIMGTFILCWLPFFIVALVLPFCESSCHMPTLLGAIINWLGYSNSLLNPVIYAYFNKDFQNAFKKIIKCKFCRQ
The target of a further experiment is human 5HT2 receptor (Homo sapiens, UniProt P28223). As to the kind of experiment: Cross-reactivity binding, human 5HT2 receptor.
Chain of human 5HT2 receptor (P28223 whole entry): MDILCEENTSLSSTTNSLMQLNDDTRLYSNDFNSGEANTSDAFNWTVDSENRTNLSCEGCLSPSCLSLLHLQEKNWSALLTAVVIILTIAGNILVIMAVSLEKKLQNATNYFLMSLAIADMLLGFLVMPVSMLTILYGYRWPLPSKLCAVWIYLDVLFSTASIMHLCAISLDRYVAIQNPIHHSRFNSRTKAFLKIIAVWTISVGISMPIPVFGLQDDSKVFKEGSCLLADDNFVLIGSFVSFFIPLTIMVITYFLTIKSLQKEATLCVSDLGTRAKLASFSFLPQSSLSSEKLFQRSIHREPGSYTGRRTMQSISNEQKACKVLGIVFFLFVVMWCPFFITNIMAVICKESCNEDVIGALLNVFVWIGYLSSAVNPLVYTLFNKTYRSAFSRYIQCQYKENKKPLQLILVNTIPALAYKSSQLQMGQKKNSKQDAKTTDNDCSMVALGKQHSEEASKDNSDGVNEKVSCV
For experiment [7], the target named is human dopamine D3 receptor (Homo sapiens, UniProt P35462). As to the kind of experiment: Cross-reactivity binding, human dopamine D3 receptor.
Chain of human dopamine D3 receptor (P35462 whole entry): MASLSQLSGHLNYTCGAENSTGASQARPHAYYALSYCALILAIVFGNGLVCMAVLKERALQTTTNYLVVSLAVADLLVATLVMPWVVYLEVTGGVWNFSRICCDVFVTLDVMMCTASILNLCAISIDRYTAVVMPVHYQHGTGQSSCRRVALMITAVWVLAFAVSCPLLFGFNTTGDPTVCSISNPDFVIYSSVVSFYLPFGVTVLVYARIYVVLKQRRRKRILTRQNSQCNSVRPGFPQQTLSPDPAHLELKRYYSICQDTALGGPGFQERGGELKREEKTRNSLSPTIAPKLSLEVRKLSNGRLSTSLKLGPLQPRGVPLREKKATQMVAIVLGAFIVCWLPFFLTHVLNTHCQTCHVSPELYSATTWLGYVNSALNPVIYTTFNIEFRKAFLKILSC
Another experiment deals with human Y1 receptor (Homo sapiens, UniProt P25929). As to the kind of experiment: ^125I-PYY binding of compounds to human Y1 receptor, stably transfected cells. As to conditions: read-out: Binding Affinity (Ki (nM) vs. ^125I-PYY) Human Receptor Y1; stably transfected 293 or LM(tk-) cells; compound 1 also COS-7 data.
Chain of human Y1 receptor (P25929 whole entry): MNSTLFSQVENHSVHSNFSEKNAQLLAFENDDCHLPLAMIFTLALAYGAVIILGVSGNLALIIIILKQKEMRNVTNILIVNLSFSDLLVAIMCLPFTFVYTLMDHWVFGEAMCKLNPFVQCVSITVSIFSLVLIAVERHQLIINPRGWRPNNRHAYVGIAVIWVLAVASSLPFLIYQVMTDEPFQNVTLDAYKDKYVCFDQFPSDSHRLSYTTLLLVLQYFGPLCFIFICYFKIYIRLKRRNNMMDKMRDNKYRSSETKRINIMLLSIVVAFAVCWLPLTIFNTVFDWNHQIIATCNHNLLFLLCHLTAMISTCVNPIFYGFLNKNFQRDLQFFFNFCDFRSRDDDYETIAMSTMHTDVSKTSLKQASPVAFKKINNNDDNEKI
The target in experiment [8] is T4, human Y4 receptor. Kind of experiment: ^125I-PYY binding of compounds to human Y4 receptor, stably transfected cells. As to conditions: read-out: Binding Affinity (Ki (nM) vs. ^125I-PYY) Human Receptor Y4; stably transfected cells.
Experimental: as §1
The next experiment relates to satiated rats. Kind of experiment: NPY-induced food intake in satiated rats. It counts as in vivo, rat. The conditions noted are these: 300 pmole i.c.v., p<0.05 Student-Newman-Keuls. As for the experimental part:
For these determinations food intake may be measured in normal satiated rats after intracerebroventricular application (i.c.v.) of NPY in the presence or absence of the test compound. Male Sprague Dawley rats (Ciba-Geigy AG, Sisseln, Switzerland) weighing between 180 g and 220 g are used for all experiments. The rats are individually housed in stainless steel cages and maintained on an 11:13 h light-dark cycle (lights off at 18:00 h) at a controlled temperature of 21-23° C. at all times. Water and food (NAFAG lab chow pellets NAFAG, Gossau, Switzerland) are available ad libidum.
Rats under pentobarbital anesthesia are stereotaxically implanted with a stainless steel guide cannula targeted at the right lateral ventricle. Stereotaxic coordinates, with the incisor bar set −2.0 mm below interaural line, are: −0.8 mm anterior and +1.3 mm lateral to bregma. The guide cannula is placed on the dura. […]
Food intake may be measured by placing preweighed pellets into the cages at the time of NPY injection. […] The food intake of animals treated with test compound may be calculated as a percentage of the food intake of control animals i.e., animals treated with vehicle. Alternatively, food intake for each group of animals subjected to a particular experimental condition may be expressed as the mean±S.E.M. Statistical analysis is performed by analysis of variance using the Student-Newman-Keuls test.

Chain of human 5HT1E receptor (P28566 whole entry): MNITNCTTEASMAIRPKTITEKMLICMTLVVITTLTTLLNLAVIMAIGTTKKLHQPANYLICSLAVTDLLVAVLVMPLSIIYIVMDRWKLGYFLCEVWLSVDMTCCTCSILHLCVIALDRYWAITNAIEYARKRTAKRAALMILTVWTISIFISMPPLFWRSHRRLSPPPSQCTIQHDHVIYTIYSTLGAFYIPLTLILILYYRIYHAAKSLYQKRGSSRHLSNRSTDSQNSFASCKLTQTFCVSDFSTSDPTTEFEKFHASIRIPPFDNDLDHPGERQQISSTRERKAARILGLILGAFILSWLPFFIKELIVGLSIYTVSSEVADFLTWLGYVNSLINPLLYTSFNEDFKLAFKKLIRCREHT
Chain of 5HT1D2 (P28222 whole entry): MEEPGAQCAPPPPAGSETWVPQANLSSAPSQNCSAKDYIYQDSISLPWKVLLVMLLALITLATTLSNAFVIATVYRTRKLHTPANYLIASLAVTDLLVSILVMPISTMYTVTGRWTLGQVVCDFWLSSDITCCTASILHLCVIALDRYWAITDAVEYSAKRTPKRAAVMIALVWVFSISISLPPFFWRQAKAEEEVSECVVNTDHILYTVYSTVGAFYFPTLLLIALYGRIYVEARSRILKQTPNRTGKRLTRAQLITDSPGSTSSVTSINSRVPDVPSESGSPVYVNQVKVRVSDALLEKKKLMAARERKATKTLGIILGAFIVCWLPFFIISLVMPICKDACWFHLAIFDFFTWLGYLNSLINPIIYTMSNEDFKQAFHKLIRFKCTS
Chain of human α2C adrenergic receptor (P18825 whole entry): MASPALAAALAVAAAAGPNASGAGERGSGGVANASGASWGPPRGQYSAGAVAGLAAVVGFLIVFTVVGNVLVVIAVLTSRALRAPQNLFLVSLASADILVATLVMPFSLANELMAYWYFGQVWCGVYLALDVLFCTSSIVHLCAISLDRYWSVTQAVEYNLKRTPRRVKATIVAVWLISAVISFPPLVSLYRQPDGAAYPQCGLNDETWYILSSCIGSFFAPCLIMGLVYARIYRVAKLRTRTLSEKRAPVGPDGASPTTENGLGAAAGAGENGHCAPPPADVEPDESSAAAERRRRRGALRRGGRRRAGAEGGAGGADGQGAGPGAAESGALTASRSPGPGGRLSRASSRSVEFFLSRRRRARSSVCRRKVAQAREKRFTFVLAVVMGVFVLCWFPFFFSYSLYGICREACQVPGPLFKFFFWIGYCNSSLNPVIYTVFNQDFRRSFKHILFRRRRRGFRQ
Experimental for human Y1 receptor: as §1

In turn, `COc1ccc(Nc2nc(Nc3ccccc3)c3cccc(OC)c3n2)cc1.Cl` [Compound 9, 8-Methoxy-2-(4-methoxy-phenylamino)-4-phenylamino-quinazoline Hydrochloride] registered a Ki on human Y2 receptor [1] above 100000 nM. The “Receptor (pKi) 5HT1E” value on human 5HT1E receptor came out at 5.30. The “Receptor (pKi) 5HT1Dα” value at human 5HT1Dα receptor is recorded as 5.30. At human 5HT1F receptor, the “Receptor (pKi) 5HT1F” value amounted to 5.30. Also, at 5HT1D2, the “Receptor (pKi) 5HT1D2” value was 5.30.
Consider `NC(N)=NCCC[C@@H](NC(=O)C(c1ccccc1)c1ccccc1)C(=O)NCc1ccc(O)cc1` [BIBP 3226], for which the “antagonism of NPY- or PP-induced activation” value at rat Y2 receptor [2] was “no evidence for antagonism”. The Ki amounted to 66 µM at rat Y2 receptor [3]; 8 µM at human Y4 receptor [4]; 6.9 µM on human Y2 receptor [5]; 0.42 µM on rat Y4 receptor; 17000 nM at canine Y5 receptor.
`Cl.Cl.c1ccc(Nc2nc(Nc3ccc(N4CCCCC4)cc3)nc3ccccc23)cc1` [Compound 6, 2-[4-(Piperidin-1-yl)-phenylamino]-4-phenylamino-quinazoline Dihydrochloride]: the Ki in experiment [6] was 0.437 µM. Besides, the “Receptor (pKi) 5HT1E” value at human 5HT1E receptor came to 5.30. Further, on human 5HT1Dα receptor, the “Receptor (pKi) 5HT1Dα” value came out at 5.30. The “Receptor (pKi) 5HT1F” value at human 5HT1F receptor was found to be 5.30. Also, the “Receptor (pKi) 5HT1D2” value on 5HT1D2 is listed as 5.30.
In turn, `CNS(=O)(=O)Cc1ccc(Nc2nc(Nc3ccccc3)c3ccccc3n2)cc1.Cl` [Compound 11, N-Methyl-[4-(4-phenylamino-quinazolin-2-ylamino)-phenyl]-methanesulfonamide Hydrochloride] displayed a Ki at human Y2 receptor [1] above 100000 nM. For the same compound, the “Receptor (pKi) 5HT1E” value on human 5HT1E receptor was found to be 5.30. Also, the “Receptor (pKi) 5HT1Dα” value on human 5HT1Dα receptor is given as 5.30. The “Receptor (pKi) 5HT1F” value at human 5HT1F receptor was 5.30. In addition, at 5HT1D2, the “Receptor (pKi) 5HT1D2” value is listed as 5.30.
Regarding `Cl.Nc1nc(NC[C@H]2CC[C@H](CNS(=O)(=O)c3cccc4ccccc34)CC2)nc2ccccc12` [Compound 5, trans-Naphthalene-1-sulfonic Acid {4-[(4-amino-quinazolin-2-ylamino)-methyl]-cyclohexylmethyl}-amide Hydrochloride], the Ki was 0.468 µM on 5HT1a (cloned human receptor, read-out: Receptor (pKi) 5HT1a (converted)); 0.389 µM at human 5HT2 receptor (cloned human receptor, read-out: Receptor (pKi) 5HT2 (converted)); 0.0575 µM in experiment [7] (cloned human receptor, read-out: Receptor (pKi) D3 (converted)). For the same compound, the “Receptor (pKi) 5HT1E” value on human 5HT1E receptor was found to be 5.30. Moreover, the “Receptor (pKi) 5HT1F” value on human 5HT1F receptor was 5.30.
In the case of `O=S(=O)(NC[C@H]1CC[C@H](CNC(CO)Cc2ccc(Cl)cc2)CC1)c1cccc2ccccc12` (stereo partly drawn) [Compound 25, Naphthalene-1-sulfonic Acid trans-(4-{[2-(4-Chlorophenyl)-1-hydroxymethyl-ethylamino]-methyl}cyclohexylmethyl)-amide], the Ki on human 5HT1E receptor and at human 5HT1F receptor was 5.01 µM in each case.
`Cl.O=S(=O)(NC[C@H]1CC[C@H](CNCC2CCc3ccccc3C2)CC1)c1cccc2ccccc12` (stereo partly drawn) [Compound 19]: the “Receptor (pKi) 5HT1E” value at human 5HT1E receptor came out at 5.30. For the same compound, the “Receptor (pKi) 5HT1F” value on human 5HT1F receptor came out at 5.30. Further, on 5HT1D2, the “Receptor (pKi) 5HT1D2” value was 5.30.
`CNS(=O)(=O)Cc1ccc(Nc2nc(Nc3ccccc3)c3cc(OC)ccc3n2)cc1.Cl` [Compound 10, N-Methyl-[4-(6-methoxy-4-phenylamino-quinazolin-2-ylamino)-phenyl]-methanesulfonamide Hydrochloride] showed a Ki on human Y2 receptor [1] above 100000 nM. Besides, at human 5HT1E receptor, the “Receptor (pKi) 5HT1E” value is reported as 5.30. Further, the “Receptor (pKi) 5HT1Dα” value on human 5HT1Dα receptor is recorded as 5.30. Moreover, the “Receptor (pKi) 5HT1F” value on human 5HT1F receptor was determined as 5.30. The “Receptor (pKi) 5HT1D2” value at 5HT1D2 worked out at 5.30.
As for “2-(Naphthalen-1-yl)-3-phenylpropane-1,2-diamine [Compound 28]”, the Ki at human Y2 receptor [1] (read-out: Binding Affinity (Ki (nM) vs. ^125I-PYY) Human Receptor Y2, stably transfected 293 or LM(tk-) cells, compound 1 also COS-7 data) was above 75000 nM; at human Y1 receptor, above 100000 nM; at human Y4 receptor [8] it was above 100000 nM.
In the case of `Cl.O=[N+]([O-])c1ccccc1S(=O)(=O)NC[C@H]1CC[C@H](CNCC2CCc3ccccc3C2)CC1` (stereo partly drawn) [Compound 20], at human 5HT1E receptor, the “Receptor (pKi) 5HT1E” value is listed as 5.30. Also, on human 5HT1F receptor, the “Receptor (pKi) 5HT1F” value stood at 5.30.
`Cl.c1ccc(Nc2nc(Nc3ccccc3)c3ccccc3n2)cc1` [Compound 1, 2,4-Diphenylamino-quinazoline Hydrochloride]: the Ki on 5HT1a is 30.9 µM; at human 5HT2 receptor it was 0.457 µM; in [7] it was 2.04 µM. Moreover, the “Receptor (pKi) 5HT1E” value on human 5HT1E receptor came to 5.30. Also, the “Receptor (pKi) 5HT1F” value on human 5HT1F receptor was determined as 5.30. Besides, on 5HT1D2, the “Receptor (pKi) 5HT1D2” value is 5.30.
With “NPY: neuropeptide Y; porcine NPY, 300 pmole i.c.v., in the feeding studies”, in the experiment with satiated rats, the “effect on food intake vs vehicles” value was “significantly induce food intake”.
